# Assay results taken from patent US12209087B2, “AKT1 modulators” (Alterome Therapeutics, Inc., priority 2022, dated 2025).
# Molecular target: T1, full length AKT E17K (Homo sapiens, UniProt P31749, E17K)
# T1 construct: host or cells: HEK-293 (ATCC CRL-1573)
# Experiment: NanoBRET Target Engagement (TE) Assay
# Type: cell-based
# Settings: competitive displacement of tracer in cells, read-out: AKT1 E17K IC50
# Description: The NanoBRET™ Target Engagement (TE) Intracellular Kinase Assays are based on the NanoBRET™ System (Promega Corporation), an energy transfer technique designed to measure molecular proximity in living cells. The NanoBRET™ TE Assays measure the apparent affinity of test compounds by competitive displacement of the NanoBRET™ tracer compound, which is a cell permeable molecule engineered to be reversibly bound to a NanoLuc® luciferase-kinase fusion expressed in cells. For compound screening, when a test compound binds to the selected kinase, the BRET signal is attenuated. […] All cells were evaluated for viability prior to transfection and optimization of the transfection was done prior to experimentation. […] Following transfection, cells were washed and resuspended in Opti-MEM. NanoBRET assays were performed in white, 384-well plates (Corning) at a density of […]. All example compounds were prepared as concentrated stock solutions in DMSO (Sigma-Aldrich). Compounds are dissolved in DMSO to make 10 mM stock solution. […] A Labcyte ECHO 550 compound dispenser was used to facilitate compound transfer directly to cells. Cells were equilibrated for 2 hr with energy transfer probes and example compound prior to BRET measurements. […] For target engagement analysis, the energy transfer probes were added to the cells at concentrations optimized for the target in question (AKT E17K). Following compound incubation, NanoBRET NanoGlo Substrate (Promega Cat #N157D) and Extracellular Nanoluc Inhibitor (Promega Cat #N235C) was added according to the manufacturer's recommended protocol, and luminescence was measured on Envision Reader (Perkin Elmer) Multimode Luminometer equipped with 450 nm BPfilter (donor) and 600 nm LPfilter (acceptor), using 0.5 s integration time. Milli-BRET units (mBU) are calculated by multiplying the raw BRET values by 1000. Apparent tracer affinity values (EC50) were determined using the sigmoidal dose-response (variable slope).
# Competitive displacement data were then plotted and data were fit to determine the EC50 value for each example compound.
# T1 sequence (P31749 whole entry E17K): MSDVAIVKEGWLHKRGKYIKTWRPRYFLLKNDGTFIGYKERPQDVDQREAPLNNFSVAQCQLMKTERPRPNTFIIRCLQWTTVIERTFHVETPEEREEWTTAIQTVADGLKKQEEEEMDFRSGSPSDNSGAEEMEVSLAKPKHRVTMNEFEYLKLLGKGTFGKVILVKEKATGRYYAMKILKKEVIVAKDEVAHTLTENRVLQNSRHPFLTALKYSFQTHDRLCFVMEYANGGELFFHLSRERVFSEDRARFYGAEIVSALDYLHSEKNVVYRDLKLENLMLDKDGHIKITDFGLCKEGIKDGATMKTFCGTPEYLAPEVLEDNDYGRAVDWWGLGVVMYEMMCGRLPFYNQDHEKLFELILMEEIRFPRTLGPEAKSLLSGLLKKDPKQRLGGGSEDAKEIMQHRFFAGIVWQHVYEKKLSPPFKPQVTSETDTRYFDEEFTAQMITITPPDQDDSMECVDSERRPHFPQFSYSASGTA
row,IC50 [nM],Compound
1,< 15,"N#Cc1nccc(NC2CCN(Cc3ccc(-n4c(-c5cccnc5N)nc5ccc([C@@H]6CCOC6)nc54)cc3)CC2)n1 (single isomer, unassigned) [Example 506]"
2,< 15,"N#Cc1nccc(NC2CCN(Cc3ccc(-n4c(-c5cccnc5N)nc5ccc([C@H]6CCOC6)nc54)cc3)CC2)n1 (single isomer, unassigned) [Example 507]"

# Same assay, conditions: competitive tracer displacement in living cells, read-out: AKT1 E17K IC50
row,IC50 [nM],Compound
1,600 to 10000,"N#Cc1ccc(OC2CCN(Cc3ccc(-n4c(-c5cccnc5N)nc5cccnc54)cc3)CC2)nc1 [Example 1, 6-((1-(4-(2-(2-Aminopyridin-3-yl)-3H-imidazo[4,5-b]pyridin-3-yl)benzyl)piperidin-4-yl)oxy)nicotinonitrile]"
2,60 to 600,"N#Cc1ccc(OC2CCN(Cc3ccc(-n4c(-c5cccnc5N)nc5ccc(-c6ccccc6)nc54)cc3)CC2)nc1 [Example 2, 6-((1-(4-(2-(2-Aminopyridin-3-yl)-5-phenyl-3H-imidazo[4,5-b]pyridin-3-yl)benzyl)piperidin-4-yl)oxy)nicotinonitrile]"
3,600 to 10000,"N#Cc1ccc(OC2CCN(Cc3ccc(-n4c(-c5cccnc5N)nc5cc(-c6ccccc6)cnc54)cc3)CC2)nc1 [Example 3, 6-((1-(4-(2-(2-aminopyridin-3-yl)-6-phenyl-3H-imidazo[4,5-b]pyridin-3-yl)benzyl)piperidin-4-yl)oxy)nicotinonitrile]"
4,600 to 10000,"N#Cc1cccc(OC2CCN(Cc3ccc(-n4c(-c5cccnc5N)nc5cccnc54)cc3)CC2)n1 [Example 4, 6-((1-(4-(2-(2-Aminopyridin-3-yl)-3H-imidazo[4,5-b]pyridin-3-yl)benzyl)piperidin-4-yl)oxy)picolinonitrile]"
5,600 to 10000,"N#Cc1ccnc(OC2CCN(Cc3ccc(-n4c(-c5cccnc5N)nc5cccnc54)cc3)CC2)c1 [Example 5, 2-((1-(4-(2-(2-aminopyridin-3-yl)-3H-imidazo[4,5-b]pyridin-3-yl)benzyl)piperidin-4-yl)oxy)isonicotinonitrile]"
6,600 to 10000,"N#Cc1cccnc1OC1CCN(Cc2ccc(-n3c(-c4cccnc4N)nc4cccnc43)cc2)CC1 [Example 6, 2-((1-(4-(2-(2-aminopyridin-3-yl)-3H-imidazo[4,5-b]pyridin-3-yl)benzyl)piperidin-4-yl)oxy)nicotinonitrile]"
7,60 to 600,"N#Cc1cccc(OC2CCN(Cc3ccc(-n4c(-c5cccnc5N)nc5ccc(-c6ccccc6)nc54)cc3)CC2)n1 [Example 7, 6-((1-(4-(2-(2-Aminopyridin-3-yl)-5-phenyl-3H-imidazo[4,5-b]pyridin-3-yl)benzyl)piperidin-4-yl)oxy)picolinonitrile]"
8,600 to 10000,"N#Cc1ccnc(OC2CCN(Cc3ccc(-n4c(-c5cccnc5N)nc5ccc(-c6ccccc6)nc54)cc3)CC2)c1 [Example 8, 2-((1-(4-(2-(2-Aminopyridin-3-yl)-5-phenyl-3H-imidazo[4,5-b]pyridin-3-yl)benzyl)piperidin-4-yl)oxy)isonicotinonitrile]"
9,60 to 600,"N#Cc1cccnc1OC1CCN(Cc2ccc(-n3c(-c4cccnc4N)nc4ccc(-c5ccccc5)nc43)cc2)CC1 [Example 9, 2-((1-(4-(2-(2-Aminopyridin-3-yl)-5-phenyl-3H-imidazo[4,5-b]pyridin-3-yl)benzyl)piperidin-4-yl)oxy)nicotinonitrile]"
10,600 to 10000,"N#Cc1cccc(OC2CCN(Cc3ccc(-n4c(-c5cccnc5N)nc5cc(-c6ccccc6)cnc54)cc3)CC2)n1 [Example 10, 6-((1-(4-(2-(2-Aminopyridin-3-yl)-6-phenyl-3H-imidazo[4,5-b]pyridin-3-yl)benzyl)piperidin-4-yl)oxy)picolinonitrile]"
11,600 to 10000,"N#Cc1ccnc(OC2CCN(Cc3ccc(-n4c(-c5cccnc5N)nc5cc(-c6ccccc6)cnc54)cc3)CC2)c1 [Example 11, 2-((1-(4-(2-(2-Aminopyridin-3-yl)-6-phenyl-3H-imidazo[4,5-b]pyridin-3-yl)benzyl)piperidin-4-yl)oxy)isonicotinonitrile]"
12,600 to 10000,"N#Cc1cccnc1OC1CCN(Cc2ccc(-n3c(-c4cccnc4N)nc4cc(-c5ccccc5)cnc43)cc2)CC1 [Example 12, 2-((1-(4-(2-(2-Aminopyridin-3-yl)-6-phenyl-3H-imidazo[4,5-b]pyridin-3-yl)benzyl)piperidin-4-yl)oxy)nicotinonitrile]"
13,600 to 10000,"N#Cc1cc(N2CCN(Cc3ccc(-n4c(-c5cccnc5N)nc5cccnc54)cc3)CC2)ccn1 [Example 13, 4-(4-(4-(2-(2-Aminopyridin-3-yl)-3H-imidazo[4,5-b]pyridin-3-yl)benzyl)piperazin-1-yl)picolinonitrile]"
14,600 to 10000,"N#Cc1ccc(N2CCN(Cc3ccc(-n4c(-c5cccnc5N)nc5cccnc54)cc3)CC2)cn1 [Example 14, 5-(4-(4-(2-(2-Aminopyridin-3-yl)-3H-imidazo[4,5-b]pyridin-3-yl)benzyl)piperazin-1-yl)picolinonitrile]"
15,600 to 10000,"N#Cc1cccc(N2CCN(Cc3ccc(-n4c(-c5cccnc5N)nc5cccnc54)cc3)CC2)n1 [Example 15, 6-(4-(4-(2-(2-Aminopyridin-3-yl)-3H-imidazo[4,5-b]pyridin-3-yl)benzyl)piperazin-1-yl)picolinonitrile]"
16,600 to 10000,"N#Cc1cncc(N2CCN(Cc3ccc(-n4c(-c5cccnc5N)nc5cccnc54)cc3)CC2)c1 [Example 16, 5-(4-(4-(2-(2-Aminopyridin-3-yl)-3H-imidazo[4,5-b]pyridin-3-yl)benzyl)piperazin-1-yl)nicotinonitrile]"
17,600 to 10000,"N#Cc1ccnc(N2CCN(Cc3ccc(-n4c(-c5cccnc5N)nc5cccnc54)cc3)CC2)c1 [Example 17, 2-(4-(4-(2-(2-Aminopyridin-3-yl)-3H-imidazo[4,5-b]pyridin-3-yl)benzyl)piperazin-1-yl)isonicotinonitrile]"
18,60 to 600,"N#Cc1nccc(N2CCN(Cc3ccc(-n4c(-c5cccnc5N)nc5cccnc54)cc3)CC2)n1 [Example 18, 4-(4-(4-(2-(2-Aminopyridin-3-yl)-3H-imidazo[4,5-b]pyridin-3-yl)benzyl)piperazin-1-yl)pyrimidine-2-carbonitrile]"
19,600 to 10000,"N#Cc1cncc(N2CCN(Cc3ccc(-n4c(-c5cccnc5N)nc5cccnc54)cc3)CC2)n1 [Example 19, 6-(4-(4-(2-(2-Aminopyridin-3-yl)-3H-imidazo[4,5-b]pyridin-3-yl)benzyl)piperazin-1-yl)pyrazine-2-carbonitrile]"
20,600 to 10000,"N#Cc1ccnc(N2CCN(Cc3ccc(-n4c(-c5cccnc5N)nc5cccnc54)cc3)CC2)n1 [Example 20, 2-(4-(4-(2-(2-aminopyridin-3-yl)-3H-imidazo[4,5-b]pyridin-3-yl)benzyl)piperazin-1-yl)pyrimidine-4-carbonitrile]"
21,60 to 600,"N#Cc1cc(N2CCN(Cc3ccc(-n4c(-c5cccnc5N)nc5cccnc54)cc3)CC2)ncn1 [Example 21, 6-(4-(4-(2-(2-Aminopyridin-3-yl)-3H-imidazo[4,5-b]pyridin-3-yl)benzyl)piperazin-1-yl)pyrimidine-4-carbonitrile]"
22,600 to 10000,"N#Cc1cnnc(N2CCN(Cc3ccc(-n4c(-c5cccnc5N)nc5cccnc54)cc3)CC2)c1 [Example 22, 6-(4-(4-(2-(2-Aminopyridin-3-yl)-3H-imidazo[4,5-b]pyridin-3-yl)benzyl)piperazin-1-yl)pyridazine-4-carbonitrile]"
23,600 to 10000,"N#Cc1cc(C(=O)NC2CCN(Cc3ccc(-n4c(-c5cccnc5N)nc5cccnc54)cc3)CC2)ccn1 [Example 23, N-(1-(4-(2-(2-aminopyridin-3-yl)-3H-imidazo[4,5-b]pyridin-3-yl)benzyl)piperidin-4-yl)-2-cyanoisonicotinamide]"
24,600 to 10000,"N#Cc1ccc(C(=O)NC2CCN(Cc3ccc(-n4c(-c5cccnc5N)nc5cccnc54)cc3)CC2)cn1 [Example 24, N-(1-(4-(2-(2-Aminopyridin-3-yl)-3H-imidazo[4,5-b]pyridin-3-yl)benzyl)piperidin-4-yl)-6-cyanonicotinamide]"
25,600 to 10000,"N#Cc1ccc(C(=O)NC2CCN(Cc3ccc(-n4c(-c5cccnc5N)nc5cccnc54)cc3)CC2)nc1 [Example 25, N-(1-(4-(2-(2-Aminopyridin-3-yl)-3H-imidazo[4,5-b]pyridin-3-yl)benzyl)piperidin-4-yl)-5-cyanopicolinamide]"
26,600 to 10000,"N#Cc1cncc(C(=O)NC2CCN(Cc3ccc(-n4c(-c5cccnc5N)nc5cccnc54)cc3)CC2)c1 [Example 26, N-(1-(4-(2-(2-aminopyridin-3-yl)-3H-imidazo[4,5-b]pyridin-3-yl)benzyl)piperidin-4-yl)-5-cyanonicotinamide]"
27,600 to 10000,"N#Cc1ncccc1C(=O)NC1CCN(Cc2ccc(-n3c(-c4cccnc4N)nc4cccnc43)cc2)CC1 [Example 27, N-(1-(4-(2-(2-Aminopyridin-3-yl)-3H-imidazo[4,5-b]pyridin-3-yl)benzyl)piperidin-4-yl)-2-cyanonicotinamide]"
